From patent publication US5876956A, “Methods for identification or purification of cells containing an enzymatic intracellular marker” (Johns Hopkins University School of Medicine, priority 1995, dated 1999)

Key:
Mouse CFU-GM = assay: Growth of mouse bone marrow progenitors isolated by DAAA and flow cytometry; type: cell-based
Protocol: (§1) In an attempt to examine cytosolic ALDH on a single-cell basis, leukemia cell lines and bone marrow cells were incubated with the fluorescent substrate DAAA, washed, and subjected to flow cytometry. The cell lines and plastic nonadherent mononuclear marrow cells were incubated with 50 μM DAAA at 10^6 cells/ml for 30 minutes at 37° C. After washing twice, some mononuclear marrow cells were treated with fluorescent monoclonal antibodies (Becton-Dickinson, Mountain View, Calif.), as previously described ([…] et al., Blood 74:1517, 1989) to study cytosolic ALDH activity of CD34^+, CD19^+, and CD5^+ marrow cells. […] Dansyl fluorescence was excited at both 351.1 nm and 363.8 nm using a multiline ultraviolet filter, and was detected at 521 nm. Cytosolic ALDH activity was estimated by the corrected mean fluorescence intensity (MFI) ([…] et al., Blood 75:1947, 1990; […], 1989, supra] of dansyl staining, which equals the mean fluorescence of unstained cells subtracted from the mean fluorescence of cells treated with DAAA. The mean fluorescence level represents the average channel value for a given sample on the flow cytometer. To confirm that cellular dansyl fluorescence was the result of the activity of cytosolic ALDH, L1210/CPA cells were incubated with 50 μM 4-(diethylamino) benzaldehyde (DEAB) for 15 minutes at 37° C. prior to the DAAA incubations to inhibit cytosolic ALDH activity. […]

Mouse CFU-S (day 8) = Mouse CFU-S (day 8) of bone marrow cells isolated by DAAA and flow cytometry; type: in vivo
Protocol: as §1

Human CFU-GM = assay: Growth of human bone marrow hematopoietic progenitors after DAAA and flow cytometry; type: cell-based
Protocol: In an attempt to examine cytosolic ALDH on a single-cell basis, leukemia cell lines and bone marrow cells were incubated with the fluorescent substrate DAAA, washed, and subjected to flow cytometry. The cell lines and plastic nonadherent mononuclear marrow cells were incubated with 50 μM DAAA at 10^6 cells/ml for 30 minutes at 37° C. After washing twice, some mononuclear marrow cells were treated with fluorescent monoclonal antibodies (Becton-Dickinson, Mountain View, Calif.), as previously described ([…] et al., Blood 74:1517, 1989) to study cytosolic ALDH activity of CD34^+, CD19^+, and CD5^+ marrow cells. The cells were sorted on a Epics 753 Dual Laser Flow Cytometer (Coulter Electronics, Hialeah, Fla.) equipped with two 90-5 water cooled argon lasers (Coherent, Palo Alto, Calif.). Dansyl fluorescence was excited at both 351.1 nm and 363.8 nm using a multiline ultraviolet filter, and was detected at 521 nm. Cytosolic ALDH activity was estimated by the corrected mean fluorescence intensity (MFI) ([…] et al., Blood 75:1947, 1990; […], 1989, supra] of dansyl staining, which equals the mean fluorescence of unstained cells subtracted from the mean fluorescence of cells treated with DAAA. The mean fluorescence level represents the average channel value for a given sample on the flow cytometer. To confirm that cellular dansyl fluorescence was the result of the activity of cytosolic ALDH, L1210/CPA cells were incubated with 50 μM 4-(diethylamino) benzaldehyde (DEAB) for 15 minutes at 37° C. prior to the DAAA incubations to inhibit cytosolic ALDH activity. […] (J. E. Russo et al., Biochem Pharmacol 37:1639, 1988) L1210/CPA cells were also incubated with 50 μM dansyl glycine (DG) alone (Sigma, St. Louis, Mo.) at 10^6 cells/ml for 30 minutes at 37° C. […] The data in Table 1 show the results of flow cytometry sorting of human and mouse marrow cells based on their fluorescence intensity after incubation with DAAA. The assays of progenitor content is also shown. Isolation of bone marrow cells with high ALDH expression by fluorescence sorting based on DAAA was enriched for hematopoietic progenitors capable of both in vitro and in vivo growth. The 5% of human bone marrow cells with highest dansyl fluorescence produced substantially more CFU-GM than the 5% of cells with lowest dansyl fluorescence (p=0.007, T-test). Similarly, using DAAA-derived fluorescence, it was possible to obtain a composition that is enriched for CFU-GM (p=0.03) and the more primitive CFU-S (p=0.01) from mouse bone marrow.

cytosolic ALDH = conditions: J. E. Russo et al., Biochem Pharmacol 37:1639, 1988; cited from earlier work
cells = conditions: in vitro and in vivo; J. E. Russo et al., 1988; cited from earlier work
L1210/CPA cells = assay: Flow cytometry of dansyl fluorescence in cells incubated with the compound; type: cell-based, mouse; conditions: L1210/CPA cells incubated with 50 μM dansyl glycine alone, 10^6 cells/ml, 30 minutes, 37° C.; FIG. 1E
Protocol: In an attempt to examine cytosolic ALDH on a single-cell basis, leukemia cell lines and bone marrow cells were incubated with the fluorescent substrate DAAA, washed, and subjected to flow cytometry. The cell lines and plastic nonadherent mononuclear marrow cells were incubated with 50 μM DAAA at 10^6 cells/ml for 30 minutes at 37° C. After washing twice, some mononuclear marrow cells were treated with fluorescent monoclonal antibodies (Becton-Dickinson, Mountain View, Calif.), as previously described (M. B. Kastan et al., Blood 74:1517, 1989) to study cytosolic ALDH activity of CD34^+, CD19^+, and CD5^+ marrow cells. The cells were sorted on a Epics 753 Dual Laser Flow Cytometer (Coulter Electronics, Hialeah, Fla.) equipped with two 90-5 water cooled argon lasers (Coherent, Palo Alto, Calif.). Dansyl fluorescence was excited at both 351.1 nm and 363.8 nm using a multiline ultraviolet filter, and was detected at 521 nm. […]

[1] = 5% cells with the highest fluorescence after DAAA
[2] = 5% of cells with the lowest fluorescence after DAAA

Which “Colonies/10^5 cells, Mouse CFU-GM, Dansyl+” value (Mouse CFU-GM; [1]) does the source give for `CN(C)c1cccc2c(S(=O)(=O)NCC=O)cccc12` [DAAA, N-dansyl aminoacetaldehyde] here?
The value was 800 ± 185 Colonies/10^5 cells.

And the “Colonies/10^5 cells, Mouse CFU-GM, Dansyl-” value (Mouse CFU-GM; [2])?
The value was 250 ± 60 Colonies/10^5 cells.

What about the “Colonies/10^5 cells, Mouse CFU-S (day 8), Dansyl+” value (Mouse CFU-S (day 8); [1]) of the same compound?
Its value is 23.5 ± 1 Colonies/10^5 cells.

What about the “Colonies/10^5 cells, Mouse CFU-S (day 8), Dansyl-” value (Mouse CFU-S (day 8); [2]) of the same compound?
The value was 7 ± 1.3 Colonies/10^5 cells.

And the “Colonies/10^5 cells, Human CFU-GM, Dansyl+ MNMC” value (Human CFU-GM; [1])?
The value was 216 ± 13 Colonies/10^5 cells.

And the “Colonies/10^5 cells, Human CFU-GM, Dansyl- MNMC” value (Human CFU-GM; [2])?
Its value is 67 ± 20 Colonies/10^5 cells.

And the “harm to cells / progenitor growth after DAAA treatment” value (Human CFU-GM; human bone marrow cells treated with DAAA and processed by flow cytometry (not sorted))?
The value was “did not appear to harm cells”.

And the “Colonies/10^5 cells, Human CFU-GM, Stained MNMC” value (Human CFU-GM; mononuclear marrow cells incubated with DAAA and processed (but not sorted) by flow cytometry, unstained MNMC 163 ± 5)?
Its value is 155 ± 5 Colonies/10^5 cells.

For `CCN(CC)c1ccc(C=O)cc1` [DEAB, 4-(diethylamino) benzaldehyde], which “inhibition of cytosolic ALDH” value (cytosolic ALDH) is on record?
The value was “specific, competitive inhibitor of cytosolic ALDH”.

And the toxicity to cells (cells)?
The toxicity to cells was “nontoxic to cells in vitro and in vivo”.

For `CN(C)c1cccc2c(S(=O)(=O)NCC(=O)O)cccc12` [dansyl glycine], which “dansyl fluorescence of cells” value (L1210/CPA cells) is on record?
The value was “no detectable fluorescence”.
